Assay results reported in article PMC3138877 (Cancer research, 2011).
pIC50: −log10 of the molar value. Read-outs that look alike come from different tables or passages of the source.

Legend:
[1] = test system: H3122 lung cancer cells harboring EML4-ALK E13;A20 (variant 1); experiment: Cell Titer Blue viability, H3122; assay type: cell-based, human; details: for fold more potent than PF-1066 in H3122: growth inhibition
[2] = test system: H2228 lung cancer cells (EML4-ALK E6a/b;A20); experiment: Cell Titer Blue viability, H2228; assay type: cell-based, human; details: for pIC50: read-out: IC50 H2228, 72h, Cell titer blue
[3] = test system: SUDHL-1 lymphoma cells (NPM-ALK); experiment: Cell Titer Blue viability, SUDHL-1; assay type: cell-based, human; details: read-out: IC50 SUDHL-1, 72h
[4] = test system: SY5Y neuroblastoma cells (ALK F1174L); experiment: Cell Titer Blue viability, SY5Y; assay type: cell-based, human; details: read-out: IC50 SY5Y, 72h
[5] = test system: MKN-45 gastric carcinoma cells (MET dependent); experiment: Cell Titer Blue viability, MKN-45; assay type: cell-based, human; details: read-out: IC50 MKN-45, 72h
[6] = test system: HepG2 hepatocellular carcinoma cells; experiment: Cell Titer Blue viability, HepG2; assay type: cell-based, human; details: read-out: IC50 HepG2
[7] = test system: H2030 lung cancer cells (KRAS G12C); experiment: Cell Titer Blue viability, H2030; assay type: cell-based, human; details: read-out: IC50 H2030
[8] = test system: PC-9 lung cancer cells (EGFR exon 19 del); experiment: Cell Titer Blue viability, PC-9; assay type: cell-based, human; details: read-out: IC50 PC-9
[9] = test system: HCC78 cells (SLC34A2-ROS fusion); experiment: Cell Titer Blue viability, HCC78; assay type: cell-based, human
[10] = test system: Ba/F3 cells expressing EML4-ALK E13;A20 WT; experiment: Cell Titer Blue viability, Ba/F3 EML4-ALK WT; assay type: cell-based
[11] = test system: Ba/F3 cells expressing EML4-ALK E13;A20 L1196M; experiment: Cell Titer Blue viability, Ba/F3 EML4-ALK L1196M; assay type: cell-based; details: 72h
[12] = test system: Ba/F3 cells expressing EML4-ALK E13;A20 C1156Y; experiment: Cell Titer Blue viability, Ba/F3 EML4-ALK C1156Y; assay type: cell-based; details: 72h
EML4-ALK E13;A20 = EML4-ALK E13;A20 (Homo sapiens, UniProt Q9HC35+Q9UM73); experiment: Surrogate kinase assay; assay type: cell-based; details: 2 hours treatment, immunoblot, compared with PF-1066
EML4-ALK E13;A20 L1196M = EML4-ALK E13;A20 L1196M (Homo sapiens, UniProt Q9HC35+Q9UM73, L1196M); experiment: Surrogate kinase assay, L1196M mutant in 293 cells; assay type: cell-based; details: 2 hours, at higher concentrations than for wild-type fusion
EML4-ALK E13;A20 C1156Y = EML4-ALK E13;A20 C1156Y (Homo sapiens, UniProt Q9HC35+Q9UM73, C1156Y); experiment: Surrogate kinase assay, C1156Y mutant in 293 cells; assay type: cell-based; details: 2 hours, at higher concentrations than for wild-type fusion
[13] = test system: EML4-ALK E13;A20 in H3122 lung cancer cells; experiment: Endogenous ALK phosphorylation immunoblot in H3122; assay type: cell-based, human; details: 1 hour treatment, compared to PF-1066
H3122 xenografts = experiment: H3122 xenograft study in nude mice; assay type: in vivo; details: for growth of H3122 xenograft tumors vs vehicle: nude mice, oral gavage; for mouse weight: xenograft experiment
[14] = Pharmacokinetic study, plasma levels in mice; assay type: in vivo; details: for plasma level at 2 hours after dosing: mice, oral; for bioavailability in vivo / half-life in vivo: pharmacokinetic study
[15] = Blood-brain-barrier penetration in C57BL/6J mice; assay type: in vivo; details: for brain penetration (brain tissue concentration as % of plasma level): C57BL/6J mice, 2 hours after dosing
ALK = ALK (Homo sapiens, UniProt Q9UM73); experiment: Ambit KINOMEscan dose-response profiling, ALK; details: for pIC50: read-out: IC50 ALK (Ambit assays), Biochemical potency, Kinomescan
Chain of ALK (Q9UM73 19-1620): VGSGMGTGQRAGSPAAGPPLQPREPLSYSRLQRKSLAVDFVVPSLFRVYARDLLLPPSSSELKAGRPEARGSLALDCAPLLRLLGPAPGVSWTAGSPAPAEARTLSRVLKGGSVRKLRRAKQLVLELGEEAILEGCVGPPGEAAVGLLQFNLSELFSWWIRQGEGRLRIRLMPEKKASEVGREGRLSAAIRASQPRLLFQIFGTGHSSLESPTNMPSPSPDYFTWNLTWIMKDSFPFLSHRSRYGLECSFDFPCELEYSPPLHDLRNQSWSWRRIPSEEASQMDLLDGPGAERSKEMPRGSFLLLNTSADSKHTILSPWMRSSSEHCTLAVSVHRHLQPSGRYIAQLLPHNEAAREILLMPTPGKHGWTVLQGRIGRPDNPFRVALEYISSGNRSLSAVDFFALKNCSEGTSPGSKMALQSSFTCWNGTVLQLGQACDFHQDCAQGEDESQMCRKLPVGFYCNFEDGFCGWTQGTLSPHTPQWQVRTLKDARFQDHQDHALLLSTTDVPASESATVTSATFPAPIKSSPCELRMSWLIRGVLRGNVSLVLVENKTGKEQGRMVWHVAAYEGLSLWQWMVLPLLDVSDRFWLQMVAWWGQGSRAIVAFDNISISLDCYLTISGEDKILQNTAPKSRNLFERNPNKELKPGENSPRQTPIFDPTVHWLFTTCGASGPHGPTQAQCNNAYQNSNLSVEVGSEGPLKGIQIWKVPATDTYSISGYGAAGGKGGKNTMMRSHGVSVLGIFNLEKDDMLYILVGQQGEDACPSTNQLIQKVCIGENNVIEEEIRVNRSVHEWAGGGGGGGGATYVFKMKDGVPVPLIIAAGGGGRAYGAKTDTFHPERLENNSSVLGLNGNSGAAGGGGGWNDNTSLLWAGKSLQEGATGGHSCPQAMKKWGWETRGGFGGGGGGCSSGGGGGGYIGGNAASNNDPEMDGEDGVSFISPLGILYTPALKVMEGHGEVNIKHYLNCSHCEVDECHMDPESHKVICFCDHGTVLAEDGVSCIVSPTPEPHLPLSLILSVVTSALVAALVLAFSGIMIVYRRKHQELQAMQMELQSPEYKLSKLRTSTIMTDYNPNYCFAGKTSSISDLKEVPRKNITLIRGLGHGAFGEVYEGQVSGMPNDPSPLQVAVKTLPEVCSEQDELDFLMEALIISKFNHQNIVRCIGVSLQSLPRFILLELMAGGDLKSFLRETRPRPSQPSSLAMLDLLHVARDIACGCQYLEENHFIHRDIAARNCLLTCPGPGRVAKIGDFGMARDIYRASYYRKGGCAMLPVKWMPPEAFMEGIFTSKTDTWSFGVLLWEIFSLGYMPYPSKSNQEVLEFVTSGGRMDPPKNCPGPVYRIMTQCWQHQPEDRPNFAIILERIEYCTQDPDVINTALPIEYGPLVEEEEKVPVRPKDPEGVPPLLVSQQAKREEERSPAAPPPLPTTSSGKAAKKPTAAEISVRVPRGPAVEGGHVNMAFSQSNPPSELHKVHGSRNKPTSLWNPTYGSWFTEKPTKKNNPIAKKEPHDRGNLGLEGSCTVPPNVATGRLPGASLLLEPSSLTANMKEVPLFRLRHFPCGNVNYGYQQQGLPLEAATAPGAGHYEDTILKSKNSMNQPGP

MET = MET (Homo sapiens, UniProt P08581); experiment: Ambit KINOMEscan dose-response profiling, MET; details: read-out: IC50 MET (Ambit assays), Biochemical potency
Chain of MET (P08581 25-1390): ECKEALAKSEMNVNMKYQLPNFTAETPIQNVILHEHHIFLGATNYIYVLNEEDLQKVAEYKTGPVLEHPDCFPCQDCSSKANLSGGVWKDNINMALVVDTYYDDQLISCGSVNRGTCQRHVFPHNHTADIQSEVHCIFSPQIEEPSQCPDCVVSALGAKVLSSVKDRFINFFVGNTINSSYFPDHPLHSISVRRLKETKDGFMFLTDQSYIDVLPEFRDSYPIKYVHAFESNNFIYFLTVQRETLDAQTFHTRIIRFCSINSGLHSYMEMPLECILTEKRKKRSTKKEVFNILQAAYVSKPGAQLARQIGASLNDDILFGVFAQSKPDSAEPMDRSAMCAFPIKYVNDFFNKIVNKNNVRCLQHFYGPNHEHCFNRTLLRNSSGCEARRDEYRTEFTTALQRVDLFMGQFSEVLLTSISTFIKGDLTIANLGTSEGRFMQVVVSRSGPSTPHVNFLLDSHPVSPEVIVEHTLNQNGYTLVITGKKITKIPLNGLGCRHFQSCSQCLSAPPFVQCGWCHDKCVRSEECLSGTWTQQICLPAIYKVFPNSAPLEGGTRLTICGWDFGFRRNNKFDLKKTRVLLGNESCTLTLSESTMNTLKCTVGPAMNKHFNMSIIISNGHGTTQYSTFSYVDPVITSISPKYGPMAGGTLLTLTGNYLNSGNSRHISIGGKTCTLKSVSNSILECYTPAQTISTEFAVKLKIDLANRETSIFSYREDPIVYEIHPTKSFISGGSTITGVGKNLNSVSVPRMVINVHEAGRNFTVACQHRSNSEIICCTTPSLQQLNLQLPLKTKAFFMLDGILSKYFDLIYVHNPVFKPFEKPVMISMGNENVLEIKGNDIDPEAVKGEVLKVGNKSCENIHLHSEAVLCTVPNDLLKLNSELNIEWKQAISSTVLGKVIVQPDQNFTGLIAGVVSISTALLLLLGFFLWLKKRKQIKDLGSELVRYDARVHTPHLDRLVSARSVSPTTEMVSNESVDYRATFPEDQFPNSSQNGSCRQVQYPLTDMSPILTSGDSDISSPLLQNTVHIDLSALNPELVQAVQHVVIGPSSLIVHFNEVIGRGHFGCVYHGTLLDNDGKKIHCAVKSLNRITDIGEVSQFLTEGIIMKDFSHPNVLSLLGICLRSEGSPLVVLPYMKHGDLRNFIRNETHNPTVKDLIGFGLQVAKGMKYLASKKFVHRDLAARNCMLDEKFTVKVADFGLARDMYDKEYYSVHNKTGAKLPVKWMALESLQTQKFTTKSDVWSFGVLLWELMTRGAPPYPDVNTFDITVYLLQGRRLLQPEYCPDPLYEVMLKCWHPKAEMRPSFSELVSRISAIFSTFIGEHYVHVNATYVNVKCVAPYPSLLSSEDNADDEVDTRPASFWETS

[16] = 10-day repeated oral toxicity study in SD rats; details: for no significant toxicity (NST) level: 10 days repeated oral administration
H3122 cells = experiment: Annexin V / propidium iodide apoptosis assay; assay type: cell-based, human; details: 72h, increasing concentrations
[17] = test system: EML4-ALK E13;A20, EML4-ALK E20;A20, EML4-ALK E6b;A20 and KIF5B-ALK; experiment: Surrogate kinase assays on four ALK variants in 293 cells; assay type: cell-based
ROS1 = ROS1 (Homo sapiens, UniProt P08922); experiment: Ambit screen, ROS1; details: read-out: IC50 ROS1 in vitro (Ambit screen); racemic forms
[18] = test system: HCC78 cells (SLC34A2-ROS fusion); details: cited from earlier work
[19] = 72 hours, Chou-Talalay and Mix-Low methods
[20] = read-out: IC50 H3122, 72h, Cell titer blue
[21] = read-out: IC50 HCC78, 72h, Cell titer blue

C[C@@H]1CN(C(=O)c2ccc(NC(=O)c3cc(O[C@H](C)c4c(Cl)ccc(F)c4Cl)c(N)nn3)cc2)C[C@H](C)N1 [X-396]
cell growth of H3122, combination with rapamycin [1, 19]: synergistic decrease of cell growth
fold more potent than PF-1066 in H3122 [1]: 10 fold
pIC50 [1, 20]: 7.82
cell growth of H2228, combination with rapamycin [2, 19]: synergistic decrease of cell growth
pIC50 [2]: 7.35
pIC50 [3]: 8.05
pIC50 [4]: 7.17
pIC50 [5]: 6.81
pIC50 ([6]; 72h, Cell titer blue): 5.02
pIC50 ([7]; 72h, Cell titer blue): 6.12
pIC50 ([8]; 72h, Cell titer blue): 5.52
pIC50 [9, 21]: < 5.52
fold more potent than PF-1066 in Ba/F3 EML4-ALK E13;A20 wild-type ([10]; growth inhibition): ~10 fold
pIC50 ([10]; read-out: IC50 Ba/F3 + EML4-ALK E13;A20 WT, 72h, Cell titer blue): 7.66
pIC50 ([11]; read-out: IC50 Ba/F3 + EML4-ALK E13;A20 L1196M, Cell titer blue): 6.97
pIC50 ([11]; read-out: IC50 Ba/F3 EML4-ALK E13;A20 L1196M): ≥ 7.00
pIC50 ([12]; read-out: IC50 Ba/F3 + EML4-ALK E13;A20 C1156Y, Cell titer blue): 7.32
pIC50 ([12]; read-out: IC50 Ba/F3 EML4-ALK E13;A20 C1156Y): ≥ 7.00
phospho-ALK in 293 cells transfected with EML4-ALK E13;A20 (EML4-ALK E13;A20): greater reductions in phospho-ALK at lower concentrations of drug
ALK autophosphorylation, L1196M (EML4-ALK E13;A20 L1196M): significantly diminished
ALK autophosphorylation, C1156Y (EML4-ALK E13;A20 C1156Y): significantly diminished
endogenous ALK phosphorylation in H3122 [13]: inhibited ALK phosphorylation at lower concentrations of drug
growth of H3122 xenograft tumors vs vehicle (H3122 xenografts; 25mg/kg bid): significantly delayed the growth of tumors
mouse weight (H3122 xenografts; 25mg/kg bid): unaffected
plasma level at 2 hours after dosing ([14]; 25mg/kg): 2.28 µM
bioavailability in vivo [14]: substantial bioavailability
half-life in vivo [14]: moderate half-lives
brain penetration (brain tissue concentration as % of plasma level) ([15]; 25mg/kg): 13%
projected concentration in human brain ([15]; projection from mouse study at a human plasma level of ∼500nM): about 65 nM
fold more potent against ALK compared to PF-1066 (ALK): approximately 10 fold
pIC50 (ALK): > 9.40
pIC50 (MET): 9.13
increase of the liver enzymes AST and ALT at NST level ([16]; 80mg/kg): < 50%
no significant toxicity (NST) level [16]: 80 mg/kg

C[C@@H](Oc1cc(-c2cnn(C3CCNCC3)c2)cnc1N)c1c(Cl)ccc(F)c1Cl [PF-1066, crizotinib, reference compound]
pIC50 ([6]; Homo sapiens, HepG2, 72 h): 4.84
pIC50 ([7]; Homo sapiens, NCI-H2030, 72 h): 5.61
pIC50 ([8]; Homo sapiens, 72 h): 5.78
pIC50 ([9]; Homo sapiens, HCC78, 72 h, read-out: IC50 HCC78, 72h, Cell titer blue): 5.85
pIC50 [9, 21]: 5.87
concentration at 2 h ([14]; athymic nude (nu/nu), mouse, plasma, po, 50 mg/kg): 10.2 µM

CO[C@H]1C[C@@H]2CC[C@@H](C)[C@@](O)(O2)C(=O)C(=O)N2CCCC[C@H]2C(=O)O[C@H]([C@H](C)C[C@@H]2CC[C@@H](O)[C@H](OC)C2)CC(=O)[C@H](C)/C=C(\C)[C@@H](O)[C@@H](OC)C(=O)[C@H](C)C[C@H](C)/C=C/C=C/C=C/1C [Rapamycin, rapamycin, reference compound]
proliferation of H3122 cells, rapamycin alone ([1]; 72 hours): small but reproducible decrease
proliferation of H2228 cells, rapamycin alone ([2]; 72 hours): small but reproducible decrease

C[C@@H](Oc1cc(C(=O)Nc2ccc(C(=O)N3CCN(C)CC3)cc2)nnc1N)c1c(Cl)ccc(F)c1Cl [X-376]
fold more potent than PF-1066 in H3122 [1]: 3 fold
pIC50 [1, 20]: 7.11
pIC50 [2]: 7.24
pIC50 [3]: 7.49
pIC50 [4]: 6.85
pIC50 [5]: 6.82
pIC50 ([6]; 72h, Cell titer blue): 4.82
pIC50 ([7]; 72h, Cell titer blue): 5.85
pIC50 ([8]; 72h, Cell titer blue): 5.51
pIC50 [9, 21]: < 5.52
apoptosis (Annexin V and propidium iodide) (H3122 cells): increased apoptosis
phospho-ALK in 293 cells transfected with EML4-ALK E13;A20 (EML4-ALK E13;A20): greater reductions in phospho-ALK at lower concentrations of drug
inhibition of ALK kinase activity of four ALK fusions [17]: dose-dependent inhibition of ALK kinase activity
differences in sensitivity among the four ALK variants ([17]; quantitative examination of immunoblots (data not shown)): no major differences in sensitivity
growth of H3122 xenograft tumors vs vehicle (H3122 xenografts; 50mg/kg bid): significantly delayed the growth of tumors
mouse weight (H3122 xenografts; 50mg/kg bid): unaffected
plasma level at 2 hours after dosing ([14]; 50mg/kg): 6.27 µM
bioavailability in vivo [14]: substantial bioavailability
half-life in vivo [14]: moderate half-lives
brain penetration (brain tissue concentration as % of plasma level) ([15]; 50mg/kg): less
pIC50 (ROS1): 7.72
fold more potent against ALK compared to PF-1066 (ALK): approximately 10 fold
pIC50 (ALK): 9.21
pIC50 (MET): 9.16
increase of the liver enzymes AST and ALT at NST level ([16]; 50 mg/kg): < 50%
no significant toxicity (NST) level [16]: 50 mg/kg

COc1cc(N2CCC(N3CCN(C)CC3)CC2)ccc1Nc1ncc(Cl)c(Nc2ccccc2S(=O)(=O)C(C)C)n1 [TAE-684, reference compound]
pIC50 ([1]; Homo sapiens, NCI-H3122, 72 h, read-out: IC50 H3122 cell growth): 8.30
sensitivity of HCC78 cells [18]: moderate sensitivity
